Where two headings read alike, the source gives them in different places.
What was measured:
[1] = tested on: Pseudomonas aeruginosa efflux− (MB9799), IMP-1; format: cell-based; details: C, D serine β-lactamase inhibitor closely related to relebactam; for P. aeruginosa expressing IMP-1, efflux − (MB9799) MITC95: concentration restoring susceptibility to imipenem at 2 μg/mL in the presence of a class A
Method in brief: (§1)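 Microbroth MIC tests in PAO1-background strains with fixed imipenem and/or ceftazidime, usually at the CLSI breakpoint, plus fixed class A/C β-lactamase inhibitor against AmpC. MBL inhibitor titrated; concentration restoring susceptibility recorded and compared as fold difference between efflux+ MB9798 and efflux− MB9799.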

IMP-1 = IMP-1 (Serratia marcescens, UniProt P52699); assay: biochemical; format: biochemical; details: fluorescence assay, CCF2-FA substrate, 2 pM enzyme, 2 hours at 25° C.; read-out: IMP-1 IC50
Method in brief: (§2)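 Fluorescence assay, CCF2-FA substrate (cephalosporin core linking 7-hydroxycoumarin to fluorescein); inhibitor + MBL + substrate, 2 h, 25° C. IC50 by 4-parameter fit, semi-log plot.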

NDM-1 = NDM-1 (Klebsiella pneumoniae, UniProt C7C422); assay: biochemical; format: biochemical; details: fluorescence assay, CCF2-FA substrate, 1 pM enzyme, 2 hours at 25° C.; read-out: NDM-1 IC50
Method in brief: as §2

VIM-1 = VIM-1 (Pseudomonas aeruginosa (strain ATCC 15692 / DSM 22644 / CIP 104116 / JCM 14847 / LMG 12228 / 1C / PRS 101 / PAO1), UniProt A0A0F7KYQ8); assay: biochemical; details: CCF2-FA substrate, 30 pM enzyme, 2 hours at 25° C.
Method in brief: as §2

[2] = tested on: Escherichia coli expressing NDM-1 (CLB30005, CLB30016); format: cell-based; details: with imipenem 1 μg/ml; for Escherichia coli MITC95: NDM-1 strain, 95% inhibition of growth; for Escherichia coli expressing NDM-1 (CLB30016) MITC95: 95% inhibition of bacterial growth
Method in brief: (§3)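 Clinical isolates (E. coli NDM-1, S. marcescens IMP-1, K. pneumoniae VIM-1) were diluted 1:100 from saline suspension into 1.1×CAMHB and exposed to test compound with imipenem at 1 μg/ml. Plates were incubated at 35° C for 22 hours to 24 hours, and growth was read by absorbance.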

[3] = tested on: Klebsiella pneumoniae expressing VIM-1 (IHMA599644); format: cell-based; details: for Klebsiella pneumoniae MITC95: VIM-1 strain IHMA599644, with imipenem 1 μg/ml, 95% inhibition of growth; for Klebsiella pneumoniae expressing VIM-1 (IHMA599644) MITC95: with imipenem 1 μg/ml, 95% inhibition of bacterial growth
Method in brief: as §3

[4] = tested on: Serratia marcescens expressing IMP-1 (CL5741); format: cell-based; details: for Serratia marcescens MITC95: IMP-1 strain CL5741, with imipenem 1 μg/ml, 95% inhibition of growth; for Serratia marcescens expressing IMP-1 (CL5741) MITC95: with imipenem 1 μg/ml, 95% inhibition of bacterial growth
Method in brief: as §3

[5] = tested on: Pseudomonas aeruginosa efflux+ (MB9798), IMP-1; format: cell-based; design: Concentration of metallo-β-lactamase inhibitor which restores susceptibility of efflux + (MB9798) strain to imipenem: unit not given here; details: C, D serine β-lactamase inhibitor closely related to relebactam; for P. aeruginosa expressing IMP-1, efflux + (MB9798) MITC95: concentration restoring susceptibility to imipenem at 2 μg/mL in the presence of a class A
Method in brief: as §1

[6] = tested on: Pseudomonas aeruginosa MB9798 vs MB9799
Method in brief: as §1

[7] = fluorescence assay, read-out: VIM-1 IC50
[8] = ratio MITC95 PA_9798/MITC95 PA_9799

Chain of NDM-1 (C7C422 whole entry, looked up, species assumed): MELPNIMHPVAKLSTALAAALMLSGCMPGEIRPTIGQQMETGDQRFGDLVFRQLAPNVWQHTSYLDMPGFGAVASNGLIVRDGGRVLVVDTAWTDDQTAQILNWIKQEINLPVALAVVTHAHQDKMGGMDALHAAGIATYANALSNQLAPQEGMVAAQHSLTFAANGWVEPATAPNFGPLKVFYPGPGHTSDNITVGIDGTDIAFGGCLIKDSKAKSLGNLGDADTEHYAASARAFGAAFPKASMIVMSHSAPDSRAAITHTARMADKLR
Chain of IMP-1 (P52699 whole entry, looked up, species assumed): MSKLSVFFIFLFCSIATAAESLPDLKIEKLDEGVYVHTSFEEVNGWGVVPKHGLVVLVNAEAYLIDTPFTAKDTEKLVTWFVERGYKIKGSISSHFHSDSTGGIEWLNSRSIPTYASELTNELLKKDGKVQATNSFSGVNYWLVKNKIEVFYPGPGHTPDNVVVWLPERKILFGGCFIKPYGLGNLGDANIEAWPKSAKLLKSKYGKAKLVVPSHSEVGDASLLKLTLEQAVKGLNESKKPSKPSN

Cc1ccc(-c2ccc(S(=O)(=O)NCCN)c(S(N)(=O)=O)c2-c2nn[nH]n2)c2nc(N)[nH]c12 [Example 329, 4-(2-Amino-7-methyl-1H-benzo[d]imidazol-4-yl)-N1-(2-aminoethyl)-3-(2H-tetrazol-5-yl)benzene-1,2-disulfonamide]
P. aeruginosa expressing IMP-1, efflux − (MB9799) MITC95 [1]: 0.7813 µM | IC50 (IMP-1): 0.128 nM | IC50 (NDM-1): 0.0153 nM | IC50 (VIM-1; [7]): 0.043 nM | Escherichia coli MITC95 [2]: 1.563 µM | Klebsiella pneumoniae MITC95 [3]: 1.563 µM | Serratia marcescens MITC95 [4]: 1.563 µM | P. aeruginosa expressing IMP-1, efflux + (MB9798) MITC95 [5]: 1.563 µM | Efflux ratio [6, 8]: 2.00

CN1CC(NS(=O)(=O)c2ccc(-c3cccc4[nH]c(N)nc34)c(-c3nn[nH]n3)c2S(N)(=O)=O)C1 [Example 256, 4-(2-amino-1H-benzo[d]imidazol-4-yl)-N1-(1-methylazetidin-3-yl)-3-(2H-tetrazol-5-yl)benzene-1,2-disulfonamide]
P. aeruginosa expressing IMP-1, efflux − (MB9799) MITC95 [1]: 0.7813 µM | IC50 (IMP-1): 0.609 nM | IC50 (NDM-1): 0.0416 nM | IC50 (VIM-1; [7]): 0.168 nM | Escherichia coli MITC95 [2]: 0.3906 µM | Klebsiella pneumoniae MITC95 [3]: 1.563 µM | Serratia marcescens MITC95 [4]: 0.7813 µM | P. aeruginosa expressing IMP-1, efflux + (MB9798) MITC95 [5]: 0.7813 µM | Efflux ratio [6, 8]: 1.00

Nc1nc2c(-c3ccc(S(=O)(=O)NCC4(F)CNC4)c(S(N)(=O)=O)c3-c3nnn[nH]3)cccc2s1.O=CO [Example 91, 3-(((4-(2-aminobenzo[d]thiazol-4-yl)-2-sulfamoyl-3-(1H-tetrazol-5-yl)phenyl)sulfonamido)methyl)-3-fluoroazetidin-1-ium formate]
P. aeruginosa expressing IMP-1, efflux − (MB9799) MITC95 [1]: 1.563 µM | IC50 (IMP-1): 0.326 nM | IC50 (NDM-1): 0.0769 nM | IC50 (VIM-1; VIM-1 IC50, fluorescence assay): 0.327 nM | Escherichia coli expressing NDM-1 (CLB30016) MITC95 [2]: 1.563 µM | Klebsiella pneumoniae expressing VIM-1 (IHMA599644) MITC95 [3]: 3.125 µM | Serratia marcescens expressing IMP-1 (CL5741) MITC95 [4]: 1.563 µM | P. aeruginosa expressing IMP-1, efflux + (MB9798) MITC95 [5]: 1.563 µM | Efflux ratio [6, 8]: 1.00

NS(=O)(=O)c1c(S(=O)(=O)N[C@@H]2CCNC2)ccc(-c2cccc3cn[nH]c23)c1-c1nnn[nH]1 [Example 139, (R)-4-(1H-indazol-7-yl)-N1-(pyrrolidin-3-yl)-3-(1H-tetrazol-5-yl)benzene-1,2-disulfonamide]
P. aeruginosa expressing IMP-1, efflux − (MB9799) MITC95 [1]: 0.7813 µM | IC50 (IMP-1): 0.41 nM | IC50 (NDM-1): 0.0582 nM | IC50 (VIM-1; VIM-1 IC50, fluorescence assay): 0.141 nM | Escherichia coli expressing NDM-1 (CLB30016) MITC95 [2]: 0.7813 µM | Klebsiella pneumoniae expressing VIM-1 (IHMA599644) MITC95 [3]: 3.125 µM | Serratia marcescens expressing IMP-1 (CL5741) MITC95 [4]: 1.563 µM | P. aeruginosa expressing IMP-1, efflux + (MB9798) MITC95 [5]: 0.7813 µM | Efflux ratio [6, 8]: 1.00

NC[C@@H](CO)NS(=O)(=O)c1ccc(-c2ccc(N)nc2)c(-c2nn[nH]n2)c1S(N)(=O)=O [Example 409]
Concentration of metallo-β-lactamase inhibitor which restores susceptibility of efflux − (MB9799) strain to imipenem ([1]; efflux− MB9799, imipenem at 2 μg/mL, in the presence of a class A): 1.563 | IC50 (IMP-1): 0.17 nM | IC50 (NDM-1): 0.112 nM | IC50 (VIM-1; [7]): 0.184 nM | Escherichia coli MITC95 [2]: 0.1953 µM | Klebsiella pneumoniae MITC95 [3]: 3.125 µM | Serratia marcescens MITC95 [4]: 1.563 µM | Concentration of metallo-β-lactamase inhibitor which restores susceptibility of efflux + (MB9798) strain to imipenem ([5]; efflux+ MB9798, imipenem at 2 μg/mL, in the presence of a class A): 1.563 | Efflux ratio ([6]; fold difference between efflux+ (MB9798) and efflux− (MB9799) strains, imipenem at 2 μg/mL): 1.00

Cn1c(N)nc2c(-c3ccc(S(=O)(=O)N[C@H]4CCNC4)c(S(N)(=O)=O)c3-c3nn[nH]n3)cccc21 [Example 163, 4-(2-amino-1-methyl-1H-benzo[d]imidazol-4-yl)-N^1-((S)-pyrrolidin-3-yl)-3-(2H-tetrazol-5-yl)benzene-1,2-disulfonamide]
P. aeruginosa expressing IMP-1, efflux − (MB9799) MITC95 [1]: 0.7813 µM | IC50 (IMP-1): 0.45 nM | IC50 (NDM-1): 0.0605 nM | IC50 (VIM-1; [7]): 0.118 nM | Escherichia coli expressing NDM-1 (CLB30016) MITC95 [2]: 0.3906 µM | Klebsiella pneumoniae expressing VIM-1 (IHMA599644) MITC95 [3]: 0.7813 µM | Serratia marcescens expressing IMP-1 (CL5741) MITC95 [4]: 0.7813 µM | P. aeruginosa expressing IMP-1, efflux + (MB9798) MITC95 [5]: 0.7813 µM | Efflux ratio [6, 8]: 1.00

CN(C)CCNS(=O)(=O)c1ccc(-c2cccc3sc(N)nc23)c(-c2nnn[nH]2)c1S(N)(=O)=O [Example 22, 4-(2-amino-1,3-benzothiazol-4-yl)-N^1-[2-(dimethylamino)ethyl]-3-(1H-tetrazol-5-yl)benzene-1,2-disulfonamide]
P. aeruginosa expressing IMP-1, efflux − (MB9799) MITC95 [1]: 1.563 µM | IC50 (IMP-1): 0.413 nM | IC50 (NDM-1): 0.0348 nM | IC50 (VIM-1; [7]): 0.233 nM | Escherichia coli expressing NDM-1 (CLB30016) MITC95 [2]: 6.25 µM | Klebsiella pneumoniae expressing VIM-1 (IHMA599644) MITC95 [3]: 3.125 µM | Serratia marcescens expressing IMP-1 (CL5741) MITC95 [4]: 3.125 µM | P. aeruginosa expressing IMP-1, efflux + (MB9798) MITC95 [5]: 1.563 µM | Efflux ratio [6, 8]: 1.00

NS(=O)(=O)c1c(S(=O)(=O)N[C@@H]2CCNC2)ccc(-c2cccc3c2OC(F)(F)O3)c1-c1nnn[nH]1 [Example 131, (R)-4-(2,2-difluorobenzo[d][1,3]dioxol-4-yl)-N1-(pyrrolidin-3-yl)-3-(1H-tetrazol-5-yl)benzene-1,2-disulfonamide]
P. aeruginosa expressing IMP-1, efflux − (MB9799) MITC95 [1]: 0.7813 µM | IC50 (IMP-1): 1.83 nM | IC50 (NDM-1): 0.275 nM | IC50 (VIM-1; [7]): 0.12 nM | Escherichia coli expressing NDM-1 (CLB30016) MITC95 [2]: 1.563 µM | Klebsiella pneumoniae expressing VIM-1 (IHMA599644) MITC95 [3]: 1.563 µM | Serratia marcescens expressing IMP-1 (CL5741) MITC95 [4]: 3.125 µM | P. aeruginosa expressing IMP-1, efflux + (MB9798) MITC95 [5]: 12.5 µM | Efflux ratio [6, 8]: 16.00

NCCNS(=O)(=O)c1ccc(-c2cccc(C(=O)NC[C@H](O)CN)c2)c(-c2nn[nH]n2)c1S(N)(=O)=O [Example 346]
P. aeruginosa expressing IMP-1, efflux − (MB9799) MITC95 [1]: 0.7813 µM | IC50 (IMP-1): 3.65 nM | IC50 (NDM-1): 1.49 nM | IC50 (VIM-1; VIM-1 IC50, fluorescence assay): 0.467 nM | Escherichia coli MITC95 [2]: 1.563 µM | Klebsiella pneumoniae MITC95 [3]: 1.563 µM | Serratia marcescens MITC95 [4]: 1.563 µM | P. aeruginosa expressing IMP-1, efflux + (MB9798) MITC95 [5]: 1.563 µM | Efflux ratio [6, 8]: 2.00

Nc1nc2c(-c3ccc(S(=O)(=O)N[C@H]4CCCNC4)c(S(N)(=O)=O)c3-c3nnn[nH]3)cccc2[nH]1 [Example 179, (S)-4-(2-amino-1H-benzo[d]imidazol-4-yl)-N^1-(piperidin-3-yl)-3-(1H-tetrazol-5-yl)benzene-1,2-disulfonamide]
P. aeruginosa expressing IMP-1, efflux − (MB9799) MITC95 [1]: 1.563 µM | IC50 (IMP-1): 3 nM | IC50 (NDM-1): 0.219 nM | IC50 (VIM-1; [7]): 0.904 nM | Escherichia coli expressing NDM-1 (CLB30016) MITC95 [2]: 1.563 µM | Klebsiella pneumoniae expressing VIM-1 (IHMA599644) MITC95 [3]: 3.125 µM | Serratia marcescens expressing IMP-1 (CL5741) MITC95 [4]: 3.125 µM | P. aeruginosa expressing IMP-1, efflux + (MB9798) MITC95 [5]: 3.125 µM | Efflux ratio [6, 8]: 2.00
